Paper PMC8648852, “Pyrazoline derivatives as promising novel antischistosomal agents” (Scientific Reports, 2021)

Key:
S. mansoni adult worm = assay: In vitro antischistosomal assay (viability of ex vivo adult worms); format: cell-based, Schistosoma mansoni; conditions: for EC50: 72 h, ex vivo adult schistosomes, brackets = 95% confidence interval
Method: For biological screening, S. mansoni adult parasites were isolated from the mouse infection model (parasite ex vivo) and all compounds were initially screened at 50 µM. The gold-standard antiparasitic compound praziquantel was used as a positive control and DMSO at 0.5% v/v (representing the highest concentration of solvent) served as a negative control. […] For the remaining compounds tested, no EC50 values could be calculated due to lack of activity at 50 μM. […] In tandem, our findings confirm that pyrazolines have a potent antiparasitic activity. Indeed, few compounds in the literature are active at low concentrations for review see[11],[19]. According to criteria established by the World Health Organization (WHO) for antiparasitic hits, leads, and drug candidates, at the start of a screening campaign a compound should inhibit mobility of helminths in vitro at 10 μg/mL[20], commonly ranging from 30 to 40 μM. Thus, the anthelminthic activity of pyrazolines surpasses criteria established by the WHO.
(§1) Adult schistosomes (BH strain) were isolated from infected mice and cultured in RPMI medium + 10% fetal calf serum and 100 U/mL penicillin and 100 μg/mL streptomycin in a 24-well culture plate (Corning, New York, NY, USA) containing one pair of parasites per well at 37 °C and 5% CO2 (Panasonic Healthcare, Sakata, Oizumi-machi, Japan)[38],[39]. For antischistosomal assay, compounds were dissolved in DMSO (final concentration of 0.5% v/v). Each drug concentration was tested at least in triplicate, and the experiments were repeated three times. The initial concentration of the pyrazolines and praziquantel was 50 μM and 3 μM, respectively, which was serially diluted in medium with twofold dilutions to give six concentrations[40],[41]. The negative control worms were assayed in RPMI 1640 medium and RPMI 1640 with 0.5% DMSO. Parasites were monitored daily at 24, 48 and 72 h under a stereomicroscope (Leica Microsystems EZ4E, Wetzlar, Germany) and an inverted microscope (BEL Engineering INV 100, Monza, MB, Italy). Egg production was evaluated daily as previously described. Parasite viability was averaged and 50% effective concentrations (EC50) were calculated using GraphPad Prism software[24],[43].

[1] = Cytotoxicity assay (MTT), Vero cells; format: cell-based, African green monkey; conditions: African green monkey, Vero cells (African green monkey kidney cells); Vero cells, 72 h, MTT; brackets = 95% confidence interval
Method: (§2) The selectivity index (SI) of a compound is a widely accepted parameter used to express a drug’s in vitro efficacy. Therefore, the cytotoxic effect of these six pyrazolines (16, 18, 19, 21, 22 and 23) was evaluated using a monkey cell line (Vero) and a human cell line (SH-SY5Y). Cells were incubated with each compound at a range of concentrations for determination of cytotoxic concentrations 50% (CC50). […] With the EC50 data collected for schistosomes as well as the CC50 for animal and human cells, the selectivity indices (SI) were determined for each of the pyrazolines tested (Table 1). […] A SI value ≥ 10 is in accordance with the criteria defined by the WHO for antiparasitic hits, leads, and drug candidates. […] Comparatively, the SI values achieved with pyrazolines exceeded those obtained for other relevant heterocyclic compounds with antischistosomal properties[21],[22]. Although the SI values recorded for pyrazolines were more than 10 times below those for the reference drug praziquantel, a SI value ≥ 10 fulfills and exceeds the criteria established by the WHO for potential compounds as anthelmintic agents. The cytotoxicity of compounds was tested against Vero cells (African green monkey kidney cells obtained from the American Type Culture Collection, ATCC; Manassas, VA, USA) and SH-SY5Y cells (human neuroblastoma obtained from Banco de Células do Rio de Janeiro, BCRJ, RJ, Brazil). Cells was cultured in DMEM medium supplemented with 10% fetal calf serum, penicillin (100 U/mL) and streptomycin (100 µg/mL) and 2 mM of L-glutamine at 37 °C and in a 5% CO2 humidified incubator (Panasonic). The DMEM contained 1 or 4 mg/mL glucose for Vero and SH-SY5Y cells, respectively. Cytotoxicity assay was performed as previously described[25],[26]. Briefly, cells were seeded in 96-well plates (Corning) in DMEM medium and incubated with twofold serial drug starting at 200 μM following a 24 h adhesion period at 37 °C in 5% CO2. After 72 h, MTT was added and incubation was continued for another 3 h. The plate was then read using spectrophotometer (Epoch Microplate Spectrophotometer, BioTek Instruments, Winooski, VT, USA) at 595 nm. The assay was conducted in duplicate and repeated three times. Values were expressed as percentage of the control and 50% cytotoxic concentration (CC50) values were calculated. The selectivity indices (SI) of tested compounds were calculated by dividing CC50 values obtained on mammalian cells with EC50 values determined on S. mansoni.

Vero cells = assay: Cytotoxicity assay (MTT), Vero cells; format: cell-based, African green monkey; conditions: CC50 (Vero) divided by EC50 (S. mansoni)
Method: as §2

[2] = Cytotoxicity assay (MTT), SH-SY5Y cells; format: cell-based, human; conditions: human, SH-SY5Y cells (human neuroblastoma); SH-SY5Y cells, 72 h, MTT
Method: as §2

SH-SY5Y cells = assay: Cytotoxicity assay (MTT), SH-SY5Y cells; format: cell-based, human; conditions: CC50 (SH-SY5Y) divided by EC50 (S. mansoni)
Method: as §2

[3] = test system: paired adult schistosomes (S. mansoni); assay: Egg production (fecundity) of paired adult schistosomes in vitro; format: cell-based, Schistosoma mansoni; conditions: sublethal concentrations (6.25 μM for 16, 12.5 μM for 19 and 23), compared to control
Method: Based on antischistosomal properties of pyrazolines 16, 18, 19, 21, 22 and 23, the ability of these six compounds to affect fecundity (egg production) was subsequently measured. […] To further investigate this effect on schistosome fecundity, parasites were tested using sublethal concentrations (3.5 μM for compound 22, 6.25 μM for compound 16, and 12.5 μM for compounds 18, 19, 21, and 23).
as §1

Cc1ccc(C2CC(c3ccc(F)cc3)=NN2C(N)=O)cc1 (stereo not drawn) [Compound 19, 3-(4-fluorophenyl)-4,5-dihydro-5-p-tolylpyrazole-1-carboxamide]
Time until all parasites were dead (S. mansoni adult worm; 50 μM): ≤ 24 h
Antiparasitic activity in initial screen (S. mansoni adult worm; 50 µM, after 72 h, adult worms): showed antiparasitic activity
EC50 (S. mansoni adult worm; Schistosoma mansoni): < 20 µM
EC50 (S. mansoni adult worm): 17.4 µM
CC50 at 72 h [1]: 169 µM
Monkey cells SI (selectivity index) (Vero cells): 9.7
CC50 at 72 h [2]: > 200 µM
Human cells SI (selectivity index) (SH-SY5Y cells): > 11.5
Reduction in the number of eggs [3]: 30–70%
